Data published in patent EP4813381A1, “PHARMACEUTICAL USE OF GUAIANE SESQUITERPENE DERIVATIVE” (Nanjing University Of Chinese Medicine, priority 2023, dated 2025).

Tests used:
[1] = system: inflammatory cytokines (TNF, IL-6, IL-1); test: LPS mouse sepsis model: Q-PCR of inflammatory factor mRNA in lung, liver and kidney; assay type: in vivo, C57BL/6 mice; settings: sepsis mice, 5 mg/kg
Excerpt: Gently pipette to mix the above reagents. The reaction conditions are as follows:
Detailed information is as follows:

[2] = system: MC903-induced atopic dermatitis (AD); test: MC903-induced ear atopic dermatitis mouse model, Compound 1 ointment: ear thickness and dermatitis score; assay type: in vivo, mice; settings: for ear thickness: 1% ointment
Description: Weigh white petrolatum, light liquid paraffin, glyceryl monostearate, ethylparaben, and cetyl alcohol. Heat to 65 °C while stirring until dissolved. Slowly add the dissolved active pharmaceutical ingredient (API) while continuing to stir until uniformly mixed. Set aside. • (2) Aqueous Phase Preparation: […] Slowly add the aqueous phase to the oil phase while maintaining 65 °C, homogenize, and continue stirring for 30 min; • (4) Cooling: Stop heating, continue stirring, gradually reduce to room temperature, cool to form an ointment, and fill containers. […] Dissolve these substances in a small amount of propylene glycol, then place the resulting solution into the aforementioned pre-cooled blank ointment base. […] Skin Lesion Severity Score: […] Statistical analysis was performed on the data.

[3] = system: Th2-related factors Il4, Il13, Il31 and inflammatory factors Tslp, Tnf, Il1; test: MC903-induced ear atopic dermatitis mouse model, Compound 1 ointment: Q-PCR of ear; assay type: in vivo; parameters: unit not given here; settings: ear mRNA, AD mice, 1% ointment
Description: Except for the Normal group, all other groups underwent AD modeling: 20 µL of MC903 solution (also known as calcipotriol, purchased from Shanghai Yuanye Biotechnology Co., Ltd., used for inducing atopic models) was applied to each mouse's ears once daily for 14 consecutive days to induce the atopic dermatitis model. […] Measure ear thickness changes every 2 days using an electronic caliper before modeling and after treatment initiation.

[4] = system: MC903-induced atopic dermatitis (AD); test: MC903-induced AD model on the dorsum of mice, Compound 1 ointment: skin thickness and dermatitis score; assay type: in vivo; parameters: Skin thickness: unit not given here
Description: Weigh white petrolatum, light liquid paraffin, glyceryl monostearate, ethylparaben, and cetyl alcohol. Heat to 65 °C while stirring until dissolved. Slowly add the dissolved active pharmaceutical ingredient (API) while continuing to stir until uniformly mixed. Set aside. • (2) Aqueous Phase Preparation: […] Slowly add the aqueous phase to the oil phase while maintaining 65 °C, homogenize, and continue stirring for 30 min; • (4) Cooling: Stop heating, continue stirring, gradually reduce to room temperature, cool to form an ointment, and fill containers. […] Dissolve these substances in a small amount of propylene glycol, then place the resulting solution into the aforementioned pre-cooled blank ointment base. […] Establishment of the AD Model on the Dorsum of Mice and Drug Administration: […] Except for the Normal group, all other groups underwent AD modeling: 48 hours prior to the experiment, hair on the dorsal neck region was meticulously removed using clippers and depilatory cream. […] Model and control group mice received daily application of blank ointment. Twenty-four hours after completing the 14-day modeling period, photographs of skin lesions were taken, and skin lesion and blood samples were collected. Skin Lesion Severity Score: […] Statistical analysis was performed on the data.

[5] = system: Human keratinocytes (Hacat); test: Hyaluronic acid and hyaluronidase levels in UVB-irradiated human keratinocytes; assay type: cell-based; settings: UVB 90 mJ/cm^2, 24 h, 1 µM
Description: Human keratinocytes (Hacat) were cultured routinely in DMEM medium containing 10% FBS within a 5% CO2 incubator.

[6] = system: Rat mast cells (RBL-2H3); test: Mast cell degranulation test (anti-DNP IgE / DNP-HSA); assay type: cell-based; settings: RBL-2H3, IgE+HSA, 4 h, 1 µM
Description: Rat mast cells (RBL-2H3) were cultured routinely in DMEM medium containing 10% FBS within a 5% CO2 incubator. Upon reaching 70-80% confluence, cells were uniformly seeded at a density of 1 × 10^5 cells/mL into 6-well plates (2 mL per well), divided into the following groups: Normal, IgE+HSA, Compound 1 (0.01, 0.1, 1, 10 µM). Mast cells were sensitized with 500 µg/L anti-DNP IgE for 12 h. washed with PBS, and cultured for an additional 12 h with 100 µg/L DNP-HSA. Compound 1 at the specified concentrations was then added. […]

[7] = system: inflammatory factors Tslp, Tnf and Th2-associated factors Il4, Il13, Il31; test: MC903-induced ear atopic dermatitis mouse model, oral Compound 20: Q-PCR of ear; settings: ear mRNA, AD mice, 5 mg/kg
[8] = system: MC903-induced atopic dermatitis (AD); test: MC903-induced ear atopic dermatitis mouse model, oral Compound 20: dermatitis score, ear thickness, serum IgE; settings: 5 mg/kg

`C[C@@H]1C[C@H]2[C@@H]3CCC4=CC(=O)C=C[C@]4(C)[C@@]3(F)[C@@H](O)C[C@]2(C)[C@@]1(O)C(=O)CO` [Dex, Dexamethasone, reference compound] gave a Tnf ([1]; kidney mRNA (relative, Gapdh)) of 6.62±0.68, a Tnf ([1]; liver mRNA (relative, Gapdh)) of 7.04±0.77 and a Tnf ([1]; lung mRNA (relative, Gapdh)) of 8.99 ± 0.76. For the same compound, the ear thickness ([2]; Day 1) was 0.15±0.00 mm, the ear thickness ([2]; Day 3) was 0.18±0.00 mm and the ear thickness ([2]; Day 5) was 0.22±0.00 mm. For the same compound, the ear thickness ([2]; Day 7) was 0.24±0.01 mm, the ear thickness ([2]; Day 8) was 0.24±0.00 mm and the ear thickness ([2]; Day 9) was 0.24±0.01 mm. It also gave an ear thickness ([2]; Day 10) of 0.25±0.01 mm, an ear thickness ([2]; Day 11) of 0.26±0.01 mm and an ear thickness ([2]; Day 12) of 0.28±0.00 mm. The ear thickness ([2]; Day 13) was 0.27±0.01 mm, the ear thickness ([2]; Day 14) was 0.26±0.01 mm and the “Dermatitis Score” value ([2]; ear, 1% ointment for 7 days, score max 12) was 3.50±0.22. For the same compound, the TSLP [3] was 1.30 ±0.17, the Tnf [3] was 1.38 ±0.22 and the “Dermatitis Score” value ([4]; back, 1% ointment for 7 days, score max 12) was 4.17±0.31. The Skin thickness ([4]; dorsal region, AD mice, 1% ointment) was 30.44±0.62, the Hyaluronidase [5] was 87.14 ± 9.63 ng/mL and the β-Glucosaminidase [6] was 9.78 ± 0.01 ng/mL. For the same compound, the TSLP [7] was 2.13±0.26, the Tnf [7] was 2.30±0.36 and the atopic dermatitis score ([8]; Day 1) was 0.00±0.00. It also gave an ear thickness ([8]; Day 1) of 0.20±0.00 mm, an atopic dermatitis score ([8]; Day 3) of 0.67±0.21 and an ear thickness ([8]; Day 3) of 0.23±0.00 mm. For the same compound, the atopic dermatitis score ([8]; Day 5) was 1.50±0.22, the ear thickness ([8]; Day 5) was 0.25±0.00 mm and the atopic dermatitis score ([8]; Day 7) was 2.00±0.26. For the same compound, the ear thickness ([8]; Day 7) was 0.26±0.00 mm, the atopic dermatitis score ([8]; Day 8) was 2.83±0.31 and the ear thickness ([8]; Day 8) was 0.26±0.00 mm. The atopic dermatitis score ([8]; Day 9) was 3.00±0.00, the ear thickness ([8]; Day 9) was 0.27±0.00 mm and the atopic dermatitis score ([8]; Day 10) was 3.17±0.17. It also gave an ear thickness ([8]; Day 10) of 0.28±0.00 mm, an atopic dermatitis score ([8]; Day 11) of 3.50±0.22 and an ear thickness ([8]; Day 11) of 0.27±0.00 mm. For the same compound, the atopic dermatitis score ([8]; Day 12) was 3.00±0.26, the ear thickness ([8]; Day 12) was 0.27±0.00 mm and the atopic dermatitis score ([8]; Day 13) was 2.67±0.21. The ear thickness ([8]; Day 13) was 0.27±0.00 mm, the atopic dermatitis score ([8]; Day 14) was 2.00±0.26 and the ear thickness ([8]; Day 14) was 0.26±0.00 mm. For the same compound, the IgE ([8]; serum, AD mice) was 191.65 ± 39.26 ng/mL.
